Values quoted from earlier work, collected in patent US8343778B2, “Microfluidic microarray assemblies and methods of manufacturing and using” (Simon Fraser University, priority 2004, dated 2013).

Target: T1, Ure2p (Saccharomyces cerevisiae, UniProt P23202)
T1 sequence (P23202 1-354): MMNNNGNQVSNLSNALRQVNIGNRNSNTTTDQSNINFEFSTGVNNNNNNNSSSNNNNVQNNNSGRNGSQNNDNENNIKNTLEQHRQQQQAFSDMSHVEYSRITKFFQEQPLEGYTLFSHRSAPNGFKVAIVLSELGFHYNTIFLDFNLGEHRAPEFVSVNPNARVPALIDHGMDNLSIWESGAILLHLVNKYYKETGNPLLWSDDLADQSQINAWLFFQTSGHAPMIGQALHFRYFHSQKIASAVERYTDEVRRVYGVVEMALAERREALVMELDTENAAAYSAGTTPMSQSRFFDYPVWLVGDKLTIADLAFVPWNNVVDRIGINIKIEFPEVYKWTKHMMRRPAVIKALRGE
Conditions: high-density SMA of 1,3-dioxane-based small molecules exposed to fluorescently labeled Ure2p

uretupamine
binding of fluorescently labeled Ure2p to arrayed small molecule: Ure2p-binding
